Reference: ChEMBL document CHEMBL6109035, “Anticonvulsant effects of new coumarin-2,3-dimethylbutadiene Diels-Alder cycloadducts in the pentylenetetrazole-induced clonic seizures in mice” (Bioorg Med Chem Lett, 2025)

Legend:
[1] = system: Mus musculus; experiment: Antiseizure activity in PTZ-induced male CD-1 mouse clonic seizure model assessed as increase in latency time by measuring fold change at 15 mg/kg, ip pretreated with compound followed by PTZ-induction; type: functional
[2] = system: Mus musculus; experiment: Antiseizure activity in PTZ-induced male CD-1 mouse clonic seizure model assessed as improvement in locomotor activity by measuring fold change at 15 mg/kg, ip pretreated with compound followed by PTZ-induction by open field test; type: functional
[3] = system: Mus musculus; experiment: Antiseizure activity in PTZ-induced male CD-1 mouse clonic seizure model assessed as increase in latency time at 15 mg/kg, ip pretreated with compound followed by PTZ-induction; type: functional
[4] = system: Mus musculus; experiment: Antiseizure activity in PTZ-induced male CD-1 mouse clonic seizure model assessed as improvement in locomotor activity by measuring total events at 15 mg/kg, ip pretreated with compound followed by PTZ-induction by open field test; type: functional
[5] = Toxicity in male CD-1 mouse assessed as stimulation of appetite at 12 to 13 mg/kg, ip; type: organism-based; conditions: in vivo, dose 12-13 mg/kg
[6] = system: Mus musculus; experiment: Antiseizure activity in PTZ-induced male CD-1 mouse clonic seizure model assessed as increase in latency time by measuring fold change at 12 mg/kg, ip pretreated with compound followed by PTZ-induction; type: functional
[7] = system: Mus musculus; experiment: Antiseizure activity in PTZ-induced male CD-1 mouse clonic seizure model assessed as improvement in locomotor activity by measuring fold change at 12 mg/kg, ip pretreated with compound followed by PTZ-induction; type: functional
[8] = system: Mus musculus; experiment: Antiseizure activity in PTZ-induced male CD-1 mouse clonic seizure model assessed as improvement in locomotor activity by measuring total events at 12 mg/kg, ip pretreated with compound followed by PTZ-induction by open field test; type: functional
[9] = system: Mus musculus; experiment: Antiseizure activity in PTZ-induced male CD-1 mouse clonic seizure model assessed as increase in latency time at 12 mg/kg, ip pretreated with compound followed by PTZ-induction; type: functional
[10] = Toxicity in male CD-1 mouse assessed as piloerection at 12 to 13 mg/kg, ip; type: organism-based; conditions: in vivo, dose 12-13 mg/kg
[11] = Toxicity in male CD-1 mouse assessed as sedation at 12 to 13 mg/kg, ip; type: organism-based; conditions: in vivo, dose 12-13 mg/kg
[12] = system: Mus musculus; experiment: Antiseizure activity in PTZ-induced male CD-1 mouse clonic seizure model assessed as increase in latency time at 13 mg/kg, ip pretreated with compound followed by PTZ-induction; type: functional
[13] = system: Mus musculus; experiment: Antiseizure activity in PTZ-induced male CD-1 mouse clonic seizure model assessed as improvement in locomotor activity by measuring total events at 13 mg/kg, ip pretreated with compound followed by PTZ-induction by open field test; type: functional
[14] = system: Mus musculus; experiment: Antiseizure activity in PTZ-induced male CD-1 mouse clonic seizure model assessed as improvement in locomotor activity by measuring fold change at 13 mg/kg, ip pretreated with compound followed by PTZ-induction; type: functional
[15] = system: Mus musculus; experiment: Antiseizure activity in PTZ-induced male CD-1 mouse clonic seizure model assessed as increase in latency time by measuring fold change at 13 mg/kg, ip pretreated with compound followed by PTZ-induction; type: functional

Row | SMILES | fold change (FC) [1] | fold change (FC) [2] | Time [3] | Activity [4] | Activity [5] | fold change (FC) [6] | fold change (FC) [7] | Activity [8] | Time [9] | Activity [10] | Activity [11] | Time [12] | Activity [13] | fold change (FC) [14] | fold change (FC) [15]
1 | Cc1c(C(=O)c2cccc3ccccc23)c2cccc3c2n1C(CN1CCOCC1)CO3 (stereo not given) | ~4 | 3 | 279 s | 3079 |  |  |  |  |  |  |  |  |  |  | 
2 | CC1=C(C)C[C@]2(C(=O)c3ccccc3)C(=O)Oc3ccccc3[C@@H]2C1 |  |  |  |  | Toxic | ~4 | 2.4 | 2747 | 264 s | Toxic | Toxic |  |  |  | 
3 | CC1=C(C)C[C@]2(C(=O)c3ccc(C)cc3)C(=O)Oc3ccccc3[C@@H]2C1 |  |  |  |  | Toxic | ~4 | 2.4 | 2876 | 269 s | Toxic | Toxic |  |  |  | 
4 | CC1=C(C)C[C@]2(C(=O)c3ccc(Cl)cc3)C(=O)Oc3ccccc3[C@@H]2C1 |  |  |  |  | Toxic |  |  |  |  | Toxic | Toxic | 266 s | 2790 | 2.4 | ~4
